According to patent US20250154169A1, “COMPOUNDS AND METHODS FOR MODULATING SPLICING” (REMIX THERAPEUTICS INC., priority 2021, published 2025):
Read-outs that look alike come from different tables or passages of the source.

Key:
Type in all cases: cell-based, human
Target C mRNA = assay: Splicing RT-qPCR gene panel, Target C canonical junction (CJ) mRNA; settings: Homo sapiens, Tables 4A/4B, read-out: Target C (IC50, decrease in CJ mRNA, gene panel)
How it was run: (§1)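 Read-out: RT-qPCR of the canonical exon-exon junction transcript, ΔCt vs housekeeping gene, normalized to DMSO, RQ = 2^(−ΔΔCt), converted to percentage response. Cells, A673 or K562, were dosed 24 h at 37 °C across 11 3-fold dilutions from 10 uM.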

HTT mRNA [1] = assay: Splicing RT-qPCR assay, HTT canonical (CJ) and alternative (AJ) junction mRNA; settings: Homo sapiens, A673 or K562 cells, 24 hours compound treatment; for IC50: 24 h, read-out: HTT CJ (IC50, decrease in canonical junction mRNA); for AC50: read-out: HTT AJ (AC50, increase in alternative junction mRNA)
How it was run: (§2)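 Canonical (CJ) and alternative-exon (AJ) junction mRNAs quantified by one-step RT-qPCR in cell lysates, normalized to housekeeping PPIA for A673 and GAPDH or GUSB for K562. Cells were exposed 24 h at 37 °C to 11-point 3-fold compound series from 10 uM final, with DMSO at or below 0.25%.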

MYB mRNA = assay: Splicing RT-qPCR assay, MYB canonical (CJ) and alternative (AJ) junction mRNA; settings: Homo sapiens; for AC50: read-out: MYB AJ (AC50, increase in alternative junction mRNA)
How it was run: as §2

SMN2 mRNA = assay: Splicing RT-qPCR gene panel, SMN2 canonical junction (CJ) mRNA; settings: Homo sapiens, Tables 4A/4B, read-out: SMN2 (IC50, decrease in CJ mRNA, gene panel)
How it was run: as §1

HTT mRNA [2] = assay: Splicing RT-qPCR gene panel, HTT canonical junction (CJ) mRNA; settings: Homo sapiens, Tables 4A/4B, read-out: HTT (IC50, decrease in CJ mRNA, gene panel)
How it was run: as §1

[3] = 24 h, A673 or K562 cells, 24 hours compound treatment, RT-qPCR
[4] = 24 h, A673 or K562 cells, 24 hours compound treatment, RT-qPCR, read-out: MYB CJ (IC50, decrease in canonical junction mRNA)
[5] = Tables 4A/4B, canonical junction qPCR panel, read-out: MYB (IC50, decrease in CJ mRNA, gene panel)

Compound	IC50 (Target C mRNA)	IC50 (HTT mRNA [1])	AC50 (HTT mRNA [1])	AC50 (MYB mRNA; [3])	IC50 (MYB mRNA; [4])	IC50 (MYB mRNA; [5])	IC50 (SMN2 mRNA)	IC50 (HTT mRNA [2])
Cc1cn2cc(NC(=O)c3ccc(N4CCC(NCc5ccccn5)CC4)c4cn(C)nc34)cc(F)c2n1 [Compound 347, N-{8-fluoro-2-methylimidazo[1,2-a]pyridin-6-yl}-2-methyl-4-{4-[(pyridin-2-ylmethyl)amino]piperidin-1-yl}indazole-7-carboxamide]	1 to 10 µM	1 to 10 µM	1 to 10 µM	< 0.1 µM	< 0.1 µM	< 0.1 µM	< 0.1 µM	1 to 10 µM
Cc1cn2cc(NC(=O)c3ccc(N4CCC5(CC4)CNC5)c4cn(C)nc34)cc(F)c2n1 [Compound 348, 4-{2,7-diazaspiro[3.5]nonan-7-yl}-N-{8-fluoro-2-methylimidazo[1,2-a]pyridin-6-yl}-2-methylindazole-7-carboxamide]	1 to 10 µM	1 to 10 µM	1 to 10 µM	< 0.1 µM	< 0.1 µM	< 0.1 µM	< 0.1 µM	1 to 10 µM
Cc1cn2cc(NC(=O)c3ccc(N4CCC5(CCCN5)CC4)c4cn(C)nc34)cc(F)c2n1 [Compound 349, 4-{1,8-diazaspiro[4.5]decan-8-yl}-N-{8-fluoro-2-methylimidazo[1,2-a]pyridin-6-yl}-2-methylindazole-7-carboxamide]	0.1 to 1 µM	0.1 to 1 µM	0.1 to 1 µM	< 0.1 µM	< 0.1 µM	< 0.1 µM	< 0.1 µM	0.1 to 1 µM
Cc1cn2cc(NC(=O)c3ccc(N4CCNCC4)c4cn(CC(C)(C)O)nc34)cc(F)c2n1 [Compound 354, N-{8-fluoro-2-methylimidazo[1,2-a]pyridin-6-yl}-2-(2-hydroxy-2-methylpropyl)-4-(piperazin-1-yl)indazole-7-carboxamide]	> 10 µM	> 10 µM	> 10 µM	1 to 10 µM	1 to 10 µM	1 to 10 µM	0.1 to 1 µM	> 10 µM
Cc1cn2cc(NC(=O)c3ccc(N4CCNCC4)c4cn(C5CC(O)C5)nc34)cc(F)c2n1 (stereo not drawn) [Compound 355, N-{8-fluoro-2-methylimidazo[1,2-a]pyridin-6-yl}-2-(3-hydroxycyclobutyl)-4-(piperazin-1-yl)indazole-7-carboxamide]	> 10 µM	> 10 µM	1 to 10 µM	< 0.1 µM	< 0.1 µM	< 0.1 µM	< 0.1 µM	> 10 µM
Cc1cn2cc(NC(=O)c3ccc(N4CCNCC4)c4cn(C5CCOC5)nc34)cc(F)c2n1 (stereo not drawn) [Compound 356, N-{8-fluoro-2-methylimidazo[1,2-a]pyridin-6-yl}-2-(oxolan-3-yl)-4-(piperazin-1-yl)indazole-7-carboxamide]	> 10 µM	> 10 µM	> 10 µM	0.1 to 1 µM	0.1 to 1 µM	0.1 to 1 µM	< 0.1 µM	> 10 µM
Cc1cn2cc(NC(=O)c3ccc(N4CCNCC4)c4cn(CC5(O)CC5)nc34)cc(F)c2n1 [Compound 358, N-{8-fluoro-2-methylimidazo[1,2-a]pyridin-6-yl}-2-[(1-hydroxycyclopropyl)methyl]-4-(piperazin-1-yl)indazole-7-carboxamide]	> 10 µM	1 to 10 µM	> 10 µM	0.1 to 1 µM	0.1 to 1 µM	0.1 to 1 µM	< 0.1 µM	1 to 10 µM
CNc1cc(N2CCNCC2)c2cn(C)nc2c1C(=O)Nc1cc(F)c2nc(C)cn2c1 [Compound 362, N-{8-fluoro-2-methylimidazo[1,2-a]pyridin-6-yl}-2-methyl-6-(methylamino)-4-(piperazin-1-yl) indazole-7-carboxamide]	> 10 µM	> 10 µM	> 10 µM	1 to 10 µM	1 to 10 µM	1 to 10 µM	0.1 to 1 µM	> 10 µM
Cc1cn2cc(NC(=O)c3ccc(N4CCNCC4)c4cn(CC(C)(F)F)nc34)cc(F)c2n1 [Compound 364, 2-(2,2-difluoropropyl)-N-{8-fluoro-2-methylimidazo[1,2-a]pyridin-6-yl}-4-(piperazin-1-yl) indazole-7-carboxamide; trifluoroacetic acid]	> 10 µM	1 to 10 µM	> 10 µM	0.1 to 1 µM	1 to 10 µM	1 to 10 µM	< 0.1 µM	1 to 10 µM
Cc1cn2cc(NC(=O)c3ccc(N4CCNCC4)c4cn(Cc5cnco5)nc34)cc(F)c2n1 [Compound 366, N-{8-fluoro-2-methylimidazo[1,2-a]pyridin-6-yl}-2-(1,3-oxazol-5-ylmethyl)-4-(piperazin-1-yl) indazole-7-carboxamide]	> 10 µM	1 to 10 µM	1 to 10 µM	< 0.1 µM	< 0.1 µM	< 0.1 µM	< 0.1 µM	1 to 10 µM
COC(C)Cn1cc2c(N3CCNCC3)ccc(C(=O)Nc3cc(F)c4nc(C)cn4c3)c2n1 (stereo not drawn) [Compound 367, N-{8-fluoro-2-methylimidazo[1,2-a]pyridin-6-yl}-2-(2-methoxypropyl)-4-(piperazin-1-yl) indazole-7-carboxamide; trifluoroacetic acid]	> 10 µM	1 to 10 µM	1 to 10 µM	0.1 to 1 µM	0.1 to 1 µM	0.1 to 1 µM	< 0.1 µM	1 to 10 µM
Cc1cn2cc(NC(=O)c3ccc(N4CCNCC4)c4cn(Cc5cn(C)nn5)nc34)cc(F)c2n1 [Compound 368, N-{8-fluoro-2-methylimidazo[1,2-a]pyridin-6-yl}-2-[(1-methyl-1,2,3-triazol-4-yl)methyl]-4-(piperazin-1-yl) indazole-7-carboxamide; trifluoroacetic acid]	> 10 µM	> 10 µM	> 10 µM	0.1 to 1 µM	0.1 to 1 µM	0.1 to 1 µM	< 0.1 µM	> 10 µM
Cc1cn2cc(NC(=O)c3ccc(N4CCC(NCCO)CC4)c4cn(C)nc34)cc(F)c2n1 [Compound 369, N-{8-fluoro-2-methylimidazo[1,2-a]pyridin-6-yl}-4-{4-[(2-hydroxyethyl)amino]piperidin-1-yl}-2-methylindazole-7-carboxamide]	1 to 10 µM	0.1 to 1 µM	0.1 to 1 µM	< 0.1 µM	< 0.1 µM	< 0.1 µM	< 0.1 µM	0.1 to 1 µM
Cc1cn2cc(NC(=O)c3ccc(N4CCC(N)(C(F)(F)F)CC4)c4cn(C)nc34)cc(F)c2n1 [Compound 370, 4-[4-amino-4-(trifluoromethyl)piperidin-1-yl]-N-{8-fluoro-2-methylimidazo[1,2-a]pyridin-6-yl}-2-methylindazole-7-carboxamide]	> 10 µM	> 10 µM	> 10 µM	1 to 10 µM	0.1 to 1 µM	0.1 to 1 µM	0.1 to 1 µM	> 10 µM
Cc1cn2cc(NC(=O)c3ccc(N4CC[C@@H](NC5CC5)C4)c4cn(C)nc34)cc(F)c2n1 [Compound 371, 4-[(3R)-3-(cyclopropylamino)pyrrolidin-1-yl]-N-{8-fluoro-2-methylimidazo[1,2-a]pyridin-6-yl}-2-methylindazole-7-carboxamide]	> 10 µM	0.1 to 1 µM	0.1 to 1 µM	< 0.1 µM	< 0.1 µM	< 0.1 µM	< 0.1 µM	> 10 µM
